# Laboratory results: the NIST ThermoML archive (doi:10.1016/j.jct.2018.12.006)
# ± gives the expanded uncertainty stated by the source.
# Assay: molar heat capacity at constant pressure
# Details: Crystal, Small (less than 1 g) adiabatic calorimetry
smiles,measurement,setting,value
C[N+](C)(C)C[C@H](O)CC(=O)[O-] [(R)-3-hydroxy-4-(trimethylammonio)butanoate],molar heat capacity at constant pressure,"134.7 K, 100 kPa",117.9 ± 0.7 J/K/mol
same,molar heat capacity at constant pressure,"138.2 K, 100 kPa",120.5 ± 0.7 J/K/mol
same,molar heat capacity at constant pressure,"140 K, 101.33 kPa",121.6 ± 0.7 J/K/mol
same,molar heat capacity at constant pressure,"141.66 K, 100 kPa",122.9 ± 0.7 J/K/mol
same,molar heat capacity at constant pressure,"145.14 K, 100 kPa",125.4 ± 0.7 J/K/mol
same,molar heat capacity at constant pressure,"148.61 K, 100 kPa",127.8 ± 0.7 J/K/mol
same,molar heat capacity at constant pressure,"150 K, 101.33 kPa",128.6 ± 0.7 J/K/mol
same,molar heat capacity at constant pressure,"152.07 K, 100 kPa",130.3 ± 0.7 J/K/mol
same,molar heat capacity at constant pressure,"155.53 K, 100 kPa",132.7 ± 0.7 J/K/mol
same,molar heat capacity at constant pressure,"158.97 K, 100 kPa",135 ± 0.8 J/K/mol
same,molar heat capacity at constant pressure,"160 K, 101.33 kPa",135.8 ± 0.8 J/K/mol
same,molar heat capacity at constant pressure,"162.41 K, 100 kPa",137.4 ± 0.8 J/K/mol
same,molar heat capacity at constant pressure,"165.85 K, 100 kPa",139.7 ± 0.8 J/K/mol
same,molar heat capacity at constant pressure,"169.27 K, 100 kPa",142.1 ± 0.8 J/K/mol
same,molar heat capacity at constant pressure,"170 K, 101.33 kPa",142.8 ± 0.8 J/K/mol
same,molar heat capacity at constant pressure,"172.68 K, 100 kPa",144.4 ± 0.8 J/K/mol
same,molar heat capacity at constant pressure,"176.08 K, 100 kPa",146.7 ± 0.8 J/K/mol
same,molar heat capacity at constant pressure,"179.48 K, 100 kPa",149 ± 0.8 J/K/mol
same,molar heat capacity at constant pressure,"180 K, 101.33 kPa",149.2 ± 0.8 J/K/mol
same,molar heat capacity at constant pressure,"182.87 K, 100 kPa",151.1 ± 0.8 J/K/mol
same,molar heat capacity at constant pressure,"186.24 K, 100 kPa",153.1 ± 0.8 J/K/mol
same,molar heat capacity at constant pressure,"189.61 K, 100 kPa",154.7 ± 0.8 J/K/mol
same,molar heat capacity at constant pressure,"190 K, 101.33 kPa",154.7 ± 0.8 J/K/mol
same,molar heat capacity at constant pressure,"192.97 K, 100 kPa",156.2 ± 0.9 J/K/mol
same,molar heat capacity at constant pressure,"196.22 K, 100 kPa",157.8 ± 0.9 J/K/mol
same,molar heat capacity at constant pressure,"199.57 K, 100 kPa",159.7 ± 0.9 J/K/mol
same,molar heat capacity at constant pressure,"200 K, 101.33 kPa",160.1 ± 0.9 J/K/mol
same,molar heat capacity at constant pressure,"202.89 K, 100 kPa",161.9 ± 0.9 J/K/mol
same,molar heat capacity at constant pressure,"203.31 K, 100 kPa",162.1 ± 0.9 J/K/mol
same,molar heat capacity at constant pressure,"206.21 K, 100 kPa",163.8 ± 0.9 J/K/mol
same,molar heat capacity at constant pressure,"206.83 K, 100 kPa",163.9 ± 0.9 J/K/mol
same,molar heat capacity at constant pressure,"209.52 K, 100 kPa",165.7 ± 0.9 J/K/mol
same,molar heat capacity at constant pressure,"210 K, 101.33 kPa",166 ± 0.9 J/K/mol
same,molar heat capacity at constant pressure,"210.24 K, 100 kPa",166.4 ± 0.9 J/K/mol
same,molar heat capacity at constant pressure,"212.83 K, 100 kPa",167.6 ± 0.9 J/K/mol
same,molar heat capacity at constant pressure,"213.66 K, 100 kPa",168.2 ± 0.9 J/K/mol
same,molar heat capacity at constant pressure,"216.13 K, 100 kPa",169.6 ± 0.9 J/K/mol
same,molar heat capacity at constant pressure,"219.43 K, 100 kPa",171.7 ± 0.9 J/K/mol
same,molar heat capacity at constant pressure,"220 K, 101.33 kPa",172.2 ± 0.9 J/K/mol
same,molar heat capacity at constant pressure,"222.71 K, 100 kPa",173.9 ± 0.9 J/K/mol
same,molar heat capacity at constant pressure,"225.97 K, 100 kPa",176 ± 1 J/K/mol
same,molar heat capacity at constant pressure,"229.25 K, 100 kPa",178.3 ± 1 J/K/mol
same,molar heat capacity at constant pressure,"230 K, 101.33 kPa",178.6 ± 1 J/K/mol
same,molar heat capacity at constant pressure,"232.54 K, 100 kPa",180.4 ± 1 J/K/mol
same,molar heat capacity at constant pressure,"235.81 K, 100 kPa",182.5 ± 1 J/K/mol
same,molar heat capacity at constant pressure,"239.07 K, 100 kPa",184.6 ± 1 J/K/mol
same,molar heat capacity at constant pressure,"240 K, 101.33 kPa",185.1 ± 1 J/K/mol
same,molar heat capacity at constant pressure,"242.32 K, 100 kPa",186.7 ± 1 J/K/mol
same,molar heat capacity at constant pressure,"245.56 K, 100 kPa",188.8 ± 1 J/K/mol
same,molar heat capacity at constant pressure,"248.62 K, 100 kPa",190.6 ± 1 J/K/mol
same,molar heat capacity at constant pressure,"250 K, 101.33 kPa",191.6 ± 1 J/K/mol
same,molar heat capacity at constant pressure,"251.85 K, 100 kPa",192.6 ± 1 J/K/mol
same,molar heat capacity at constant pressure,"255.07 K, 100 kPa",194.8 ± 1 J/K/mol
same,molar heat capacity at constant pressure,"257.5 K, 100 kPa",196.2 ± 1.1 J/K/mol
same,molar heat capacity at constant pressure,"260 K, 101.33 kPa",198.2 ± 1.1 J/K/mol
same,molar heat capacity at constant pressure,"260.89 K, 100 kPa",199.2 ± 1.1 J/K/mol
same,molar heat capacity at constant pressure,"264.26 K, 100 kPa",200.6 ± 1.1 J/K/mol
same,molar heat capacity at constant pressure,"267.64 K, 100 kPa",203.5 ± 1.1 J/K/mol
same,molar heat capacity at constant pressure,"270 K, 101.33 kPa",205 ± 1.1 J/K/mol
same,molar heat capacity at constant pressure,"271 K, 100 kPa",205.7 ± 1.1 J/K/mol
same,molar heat capacity at constant pressure,"273.15 K, 101.33 kPa",207.2 ± 1.1 J/K/mol
same,molar heat capacity at constant pressure,"274.35 K, 100 kPa",208.2 ± 1.1 J/K/mol
same,molar heat capacity at constant pressure,"277.7 K, 100 kPa",210.3 ± 1.1 J/K/mol
same,molar heat capacity at constant pressure,"280 K, 101.33 kPa",211.9 ± 1.1 J/K/mol
same,molar heat capacity at constant pressure,"281.03 K, 100 kPa",212.6 ± 1.1 J/K/mol
same,molar heat capacity at constant pressure,"284.35 K, 100 kPa",214.7 ± 1.1 J/K/mol
same,molar heat capacity at constant pressure,"287.63 K, 100 kPa",217.8 ± 1.2 J/K/mol
same,molar heat capacity at constant pressure,"290 K, 101.33 kPa",218.9 ± 1.2 J/K/mol
same,molar heat capacity at constant pressure,"290.92 K, 100 kPa",219.8 ± 1.2 J/K/mol
same,molar heat capacity at constant pressure,"294.21 K, 100 kPa",221 ± 1.2 J/K/mol
same,molar heat capacity at constant pressure,"297.46 K, 100 kPa",224.2 ± 1.2 J/K/mol
same,molar heat capacity at constant pressure,"298.15 K, 101.33 kPa",224.7 ± 1.2 J/K/mol
same,molar heat capacity at constant pressure,"300 K, 101.33 kPa",226 ± 1.2 J/K/mol
same,molar heat capacity at constant pressure,"300.21 K, 100 kPa",225.9 ± 1.2 J/K/mol
same,molar heat capacity at constant pressure,"302.94 K, 100 kPa",227.7 ± 1.2 J/K/mol
same,molar heat capacity at constant pressure,"306.14 K, 100 kPa",230.3 ± 1.2 J/K/mol
same,molar heat capacity at constant pressure,"309.33 K, 100 kPa",232.6 ± 1.2 J/K/mol
same,molar heat capacity at constant pressure,"310 K, 101.33 kPa",233.1 ± 1.2 J/K/mol
same,molar heat capacity at constant pressure,"312.5 K, 100 kPa",234.8 ± 1.2 J/K/mol
same,molar heat capacity at constant pressure,"315.65 K, 100 kPa",237.1 ± 1.2 J/K/mol
same,molar heat capacity at constant pressure,"318.79 K, 100 kPa",239.5 ± 1.3 J/K/mol
same,molar heat capacity at constant pressure,"320 K, 101.33 kPa",240.1 ± 1.3 J/K/mol
same,molar heat capacity at constant pressure,"321.91 K, 100 kPa",241.3 ± 1.3 J/K/mol
same,molar heat capacity at constant pressure,"325.01 K, 100 kPa",243.5 ± 1.3 J/K/mol
same,molar heat capacity at constant pressure,"328.09 K, 100 kPa",245.8 ± 1.3 J/K/mol
same,molar heat capacity at constant pressure,"330 K, 101.33 kPa",247.2 ± 1.3 J/K/mol
same,molar heat capacity at constant pressure,"331.16 K, 100 kPa",248.1 ± 1.3 J/K/mol
same,molar heat capacity at constant pressure,"334.21 K, 100 kPa",250.7 ± 1.3 J/K/mol
same,molar heat capacity at constant pressure,"337.21 K, 100 kPa",251.9 ± 1.3 J/K/mol
same,molar heat capacity at constant pressure,"340 K, 101.33 kPa",254.2 ± 1.3 J/K/mol
same,molar heat capacity at constant pressure,"340.22 K, 100 kPa",254.1 ± 1.3 J/K/mol
same,molar heat capacity at constant pressure,"343.21 K, 100 kPa",256.3 ± 1.3 J/K/mol
same,molar heat capacity at constant pressure,"346.17 K, 100 kPa",258.6 ± 1.4 J/K/mol
same,molar heat capacity at constant pressure,"350 K, 101.33 kPa",261 ± 1.4 J/K/mol
